Data: patent US20150374676A1, “HELICASE-PRIMASE INHIBITORS FOR USE IN A METHOD OF TREATING ALZHEIMER'S DISEASE” (AICURIS GMBH & CO. KG, priority 2013, published 2015)
Where two headings read alike, the source gives them in different places.

Assay: Single-dose escalation pharmacokinetics in volunteers
Assay type: in vivo, human
Details: for AUC(0-t): read-out: AUC0-24h; for Ae: excreted in urine
Source text: Exposure of the free base form of N-[5-(aminosulfonyl)-4-methyl-1,3-thiazol-2-yl]-N-methyl-2-[4-(2-pyridinyl)-phenyl]acetamide to the human body may be measured by high pressure liquid chromatography (HPLC) by looking at different pharmacokinetic parameters in suitable bodily fluids such as for instance blood plasma and urine, the most common parameters being the Cmax, the so-called area under the curve (AUC), and the terminal half-life (t1/2Z). Hereto, the person skilled in the art understands that said parameters are determined by using adequate bioanalytical methods with adequate sensitivity, specificity, ruggedness, stability and repeatability, as for instance a qualified liquid chromatography triple quad mass spectrometry based method coupled with a suitable extraction method for the separation of the analyte from, e.g. the blood plasma.
Therefore, pharmacokinetic studies in human subjects were undertaken following both single and multiple dose administrations of the crystalline mono mesylate monohydrate salt of N-[5-(aminosulfonyl)-4-methyl-1,3-thiazol-2-yl]-N-methyl-2-[4-(2-pyridinyl)phenyl]acetamide, wherein the particle size distribution is preferably defined by d(0.1) from 2 to 100 μm, d(0.5) from 30 to 210 μm and d(0.9) from 70 to 400 μm with a specific surface area of the particles less than 1.0 m^2/g, and more preferably defined by d(0.1) from 10 to 75 μm, d(0.5) from 100 to 175 μm, d(0.9) from 200 to 350 μm with a specific surface area of the particles less than 0.3 m^2/g.
Single oral doses of the crystalline mono mesylate monohydrate salt of N-[5-(aminosulfonyl)-4methyl1,3thiazol-2-yl]-N-methyl-2-[4-(2-pyridinyl)phenyl]acetamide using the formulations in accordance with example a and Table a, were administered to six volunteers per dose step. The overall shape of the plasma concentrations vs. time profiles were similar across all doses applied (see FIG. 4 and FIG. 6).
Table b: Pharmacokinetic parameters after ascending single oral doses of crystalline mono mesylate monohydrate salt of N-[5-(aminosulfonyl)-4-methyl-1,3-thiazol-2-yl]-N-methyl-2-[4-(2-pyridinyl)phenyl]acetamide in the formulations in accordance with table a wherein the particle size distribution is preferably defined by d(0.1) from 2 to 100 μm, d(0.5) from 30 to 210 μm and d(0.9) from 70 to 400 μm with a specific surface area of the particles less than 1.0 m^2/g, and more preferably defined by d(0.1) from 10 to 75 μm, d(0.5) from 100 to 175 μm, d(0.9) from 200 to 350 μm with a specific surface area of the particles less than 0.3 m^2/g.
AUC0-∞: Area under the analyte vs. time concentration from time of administration up to infinity, calculated as
wherein AUC0-last is defined as the area under the analyte vs. time concentration up to time of the last qualifiable concentration, calculated by linear up/log down summation and Clast is defined as last quantifiable observed analyte concentration. λz is the apparent terminal elimination rate constant, determined by linear regression of terminal points of In-linear analyte concentration-time curve.
Cmax is the maximal observed analyte concentration and tmax is the time to reach Cmax;
t1/2z is defined as the apparent terminal elimination half-life, calculated as
MRT: Mean Residence Time; calculated AUMC divided by AUC, wherein AUMC is the area under the first moment of the concentration-time curve from zero up to ∞ with extrapolation of the terminal phase and AUC is the area under the concentration-time curve from zero up to ∞ with extrapolation of the terminal phase.
CL/F refers to the clearance after oral administration of a drug and Ae refers to the amount of drug excreted in the urine.

[1] = single oral dose 5 mg free base equivalent, human, mean, n = 6
[2] = single oral dose 10 mg free base equivalent, human, mean, n = 6
[3] = single oral dose 20 mg free base equivalent, human, mean, n = 6
[4] = single oral dose 40 mg free base equivalent, human, mean, n = 6
[5] = single oral dose 80 mg free base equivalent, females, human, mean, n = 6
[6] = single oral dose 80 mg free base equivalent, males, human, mean, n = 6
[7] = single oral dose 160 mg free base equivalent, human, mean, n = 6
[8] = single oral dose 160 mg free base equivalent, human, mean, n = 6, free base in plasma
[9] = single oral dose 240 mg free base equivalent, human, mean, n = 6
[10] = single oral dose 240 mg free base equivalent, human, mean, n = 6, free base in plasma
[11] = single oral dose 320 mg free base equivalent, human, mean, n = 6
[12] = single oral dose 320 mg free base equivalent, human, mean, n = 6, free base in plasma
[13] = single oral dose 400 mg free base equivalent, human, mean, n = 6
[14] = single oral dose 400 mg free base equivalent, human, mean, n = 6, free base in plasma
[15] = single oral dose 480 mg free base equivalent, human, mean, n = 6
[16] = single oral dose 480 mg free base equivalent, human, mean, n = 6, free base in plasma
[17] = single oral dose 600 mg free base equivalent, human, mean, n = 6

CS(=O)(=O)O.Cc1nc(N(C)C(=O)Cc2ccc(-c3ccccn3)cc2)sc1S(N)(=O)=O [mono mesylate monohydrate salt, N-[5-(aminosulfonyl)-4-methyl-1,3-thiazol-2-yl]-N-methyl-2-[4-(2-pyridinyl)-phenyl]acetamide mono methanesulfonic acid monohydrate]
t1/2z on average (40 mg dosage as free base equivalent, single oral dose): 72 ± 3 h
t1/2z on average (80 mg dosage as free base equivalent, single oral dose): 74 ± 5 h
t1/2z on average (160 mg dosage as free base equivalent, single oral dose): 63 ± 6 h
t1/2z on average (240 mg dosage as free base equivalent, single oral dose): 64 ± 5 h
t1/2z on average (320 mg dosage as free base equivalent, single oral dose): 57 ± 3 h
t1/2z on average (400 mg dosage as free base equivalent, single oral dose): 57 ± 4 h
t1/2z on average (480 mg dosage as free base equivalent, single oral dose): 53 ± 4 h
MRT (female, plasma, single oral dose 80 mg free base equivalent, females, human, mean, n = 6): 77 h
Tmax (female, plasma, single oral dose 80 mg free base equivalent, females, human, median, n = 6, read-out: tmax): 4 h
AUC(0-inf) (female, single oral dose 80 mg free base equivalent, females, human, mean, n = 6, free base in plasma): 96200 ng·h/mL
Cmax (female, single oral dose 80 mg free base equivalent, females, human, mean, n = 6, free base in plasma, read-out: Cmax): 2000 ng/mL
AUC(0-t) (human, plasma, 80 mg dosage as free base equivalent, single oral dose): 21900 ± 2060 ng·h/mL
Cmax (human, plasma, 80 mg dosage as free base equivalent, single oral dose, read-out: mean maximum blood plasma concentration (mean Cmax) of the free base): 1310 ± 125 ng/mL
AUC(0-t) (human, plasma, 160 mg dosage as free base equivalent, single oral dose): 40500 ± 16700 ng·h/mL
Cmax (human, plasma, 160 mg dosage as free base equivalent, single oral dose, read-out: mean maximum blood plasma concentration (mean Cmax) of the free base): 2610 ± 1340 ng/mL
AUC(0-t) (human, plasma, 240 mg dosage as free base equivalent, single oral dose): 59600 ± 12800 ng·h/mL
Cmax (human, plasma, 240 mg dosage as free base equivalent, single oral dose, read-out: mean maximum blood plasma concentration (mean Cmax) of the free base): 3600 ± 752 ng/mL
AUC(0-t) (human, plasma, 320 mg dosage as free base equivalent, single oral dose): 76200 ± 27600 ng·h/mL
Cmax (human, plasma, 320 mg dosage as free base equivalent, single oral dose, read-out: mean maximum blood plasma concentration (mean Cmax) of the free base): 4650 ± 1810 ng/mL
AUC(0-t) (human, plasma, 400 mg dosage as free base equivalent, single oral dose): 105000 ± 25700 ng·h/mL
Cmax (human, plasma, 400 mg dosage as free base equivalent, single oral dose, read-out: mean maximum blood plasma concentration (mean Cmax) of the free base): 6930 ± 1660 ng/mL
AUC(0-t) (human, plasma, 480 mg dosage as free base equivalent, single oral dose): 113000 ± 34300 ng·h/mL
Cmax (human, plasma, 480 mg dosage as free base equivalent, single oral dose, read-out: mean maximum blood plasma concentration (mean Cmax) of the free base): 6920 ± 2190 ng/mL
AUC(0-t) (male, human, plasma, 40 mg dosage as free base equivalent, single oral dose): 10100 ± 3110 ng·h/mL
Cmax (male, human, plasma, 40 mg dosage as free base equivalent, single oral dose, read-out: mean maximum blood plasma concentration (mean Cmax) of the free base): 608 ± 184 ng/mL
MRT (male, plasma, single oral dose 80 mg free base equivalent, males, human, mean, n = 6): 94 h
Tmax (male, plasma, single oral dose 80 mg free base equivalent, males, human, median, n = 6, read-out: tmax): 2.5 h
AUC(0-inf) (male, single oral dose 80 mg free base equivalent, males, human, mean, n = 6, free base in plasma): 87200 ng·h/mL
Cmax (male, single oral dose 80 mg free base equivalent, males, human, mean, n = 6, free base in plasma, read-out: Cmax): 1310 ng/mL
MRT (plasma, single oral dose 5 mg free base equivalent, human, mean, n = 6): 117 h
Tmax (plasma, single oral dose 5 mg free base equivalent, human, median, n = 6, read-out: tmax): 4 h
MRT (plasma, single oral dose 10 mg free base equivalent, human, mean, n = 6): 116 h
Tmax (plasma, single oral dose 10 mg free base equivalent, human, median, n = 6, read-out: tmax): 1.5 h
MRT (plasma, single oral dose 20 mg free base equivalent, human, mean, n = 6): 105 h
Tmax (plasma, single oral dose 20 mg free base equivalent, human, median, n = 6, read-out: tmax): 2.77 h
MRT (plasma, single oral dose 40 mg free base equivalent, human, mean, n = 6): 94 h
Tmax (plasma, single oral dose 40 mg free base equivalent, human, median, n = 6, read-out: tmax): 3.5 h
MRT (plasma, single oral dose 160 mg free base equivalent, human, mean, n = 6): 83 h
Tmax (plasma, single oral dose 160 mg free base equivalent, human, median, n = 6, read-out: tmax): 3.5 h
MRT (plasma, single oral dose 240 mg free base equivalent, human, mean, n = 6): 82 h
Tmax (plasma, single oral dose 240 mg free base equivalent, human, median, n = 6, read-out: tmax): 4 h
MRT (plasma, single oral dose 320 mg free base equivalent, human, mean, n = 6): 70 h
Tmax (plasma, single oral dose 320 mg free base equivalent, human, median, n = 6, read-out: tmax): 2.25 h
MRT (plasma, single oral dose 400 mg free base equivalent, human, mean, n = 6): 64 h
Tmax (plasma, single oral dose 400 mg free base equivalent, human, median, n = 6, read-out: tmax): 4.25 h
MRT (plasma, single oral dose 480 mg free base equivalent, human, mean, n = 6): 72 h
Tmax (plasma, single oral dose 480 mg free base equivalent, human, median, n = 6, read-out: tmax): 3.25 h
MRT (plasma, single oral dose 600 mg free base equivalent, human, mean, n = 6): 65 h
Tmax (plasma, single oral dose 600 mg free base equivalent, human, median, n = 6, read-out: tmax): 4.25 h
Tmax (plasma, single oral doses 5-600 mg free base equivalent, human, no obvious relation to dose, read-out: median tmax, range over doses): 1.5 to 4.25 h
half-life (plasma, single oral doses 5-600 mg free base equivalent, human, read-out: mean terminal elimination half-life (t1/2z), range over doses): 52 to 85 h
gender-related difference in exposure (single dose of 80 mg as free base equivalent, after normalization to body weight): No clinical relevant gender-related difference in exposure
exposure as shown by AUC0-∞ at the highest dose (single dose of 600 mg as free base equivalent, human): did not cause any further rise of exposure
dose dependence of maximum plasma concentrations (single doses from 5 mg to 400 mg as free base equivalent, human): linearly related to doses
dose dependence of AUC0-∞ (single doses from 5 mg to 480 mg as free base equivalent, human): dose-proportional increase
CL/F [1]: 0.89 L/h
t1/2z [1]: 80 h
Ae [1]: 0 % of dose
AUC(0-inf) (single oral dose 5 mg free base equivalent, human, mean, n = 6, free base in plasma): 5800 ng·h/mL
Cmax (single oral dose 5 mg free base equivalent, human, mean, n = 6, free base in plasma, read-out: Cmax): 74 ng/mL
CL/F [2]: 0.87 L/h
t1/2z [2]: 85 h
Ae [2]: 0 % of dose
AUC(0-inf) (single oral dose 10 mg free base equivalent, human, mean, n = 6, free base in plasma): 11700 ng·h/mL
Cmax (single oral dose 10 mg free base equivalent, human, mean, n = 6, free base in plasma, read-out: Cmax): 170 ng/mL
CL/F [3]: 1.10 L/h
t1/2z [3]: 76 h
Ae [3]: 0 % of dose
AUC(0-inf) (single oral dose 20 mg free base equivalent, human, mean, n = 6, free base in plasma): 18500 ng·h/mL
Cmax (single oral dose 20 mg free base equivalent, human, mean, n = 6, free base in plasma, read-out: Cmax): 234 ng/mL
CL/F [4]: 1.00 L/h
t1/2z [4]: 72 h
Ae [4]: 0 % of dose
AUC(0-inf) (single oral dose 40 mg free base equivalent, human, mean, n = 6, free base in plasma): 40700 ng·h/mL
Cmax (single oral dose 40 mg free base equivalent, human, mean, n = 6, free base in plasma, read-out: Cmax): 608 ng/mL
CL/F [5]: 0.85 L/h
t1/2z [5]: 58 h
Ae [5]: 0.31 % of dose
CL/F [6]: 0.94 L/h
t1/2z [6]: 74 h
Ae [6]: 0.16 % of dose
CL/F [7]: 1.28 L/h
t1/2z [7]: 63 h
Ae [7]: 0.15 % of dose
AUC(0-inf) [8]: 131000 ng·h/mL
Cmax [8]: 2613 ng/mL
CL/F [9]: 1.15 L/h
t1/2z [9]: 64 h
Ae [9]: 0.21 % of dose
AUC(0-inf) [10]: 217000 ng·h/mL
Cmax [10]: 3600 ng/mL
CL/F [11]: 1.47 L/h
t1/2z [11]: 57 h
Ae [11]: 0.16 % of dose
AUC(0-inf) [12]: 241000 ng·h/mL
Cmax [12]: 4648 ng/mL
CL/F [13]: 1.31 L/h
t1/2z [13]: 57 h
Ae [13]: 0.15 % of dose
AUC(0-inf) [14]: 320000 ng·h/mL
Cmax [14]: 6926 ng/mL
CL/F [15]: 1.33 L/h
t1/2z [15]: 53 h
Ae [15]: 0.26 % of dose
AUC(0-inf) [16]: 387000 ng·h/mL
Cmax [16]: 6921 ng/mL
CL/F [17]: 2.00 L/h
t1/2z [17]: 52 h
Ae [17]: 0.09 % of dose
AUC(0-inf) (single oral dose 600 mg free base equivalent, human, mean, n = 6, free base in plasma): 321000 ng·h/mL
Cmax (single oral dose 600 mg free base equivalent, human, mean, n = 6, free base in plasma, read-out: Cmax): 6440 ng/mL
